ChEMBL document CHEMBL1909046, “DrugMatrix in vitro pharmacology data”

Experiments:
[1] = DRUGMATRIX: Phorbol Ester radioligand binding (ligand: [3H] PDBu); type: cell membranes, Mus musculus, ICR, Brain, Membrane; settings: Not Active = under 50% inhibition at 10 µM
[2] = molecular target: T1, Alpha-1B adrenergic receptor (Rattus norvegicus, UniProt P15823); assay: DRUGMATRIX: Alpha-1B adrenergic receptor radioligand binding (ligand: prazosin); type: cell membranes, Wistar, Liver, Membrane; settings: Not Active = under 50% inhibition at 10 µM
T1 sequence (P15823 whole entry): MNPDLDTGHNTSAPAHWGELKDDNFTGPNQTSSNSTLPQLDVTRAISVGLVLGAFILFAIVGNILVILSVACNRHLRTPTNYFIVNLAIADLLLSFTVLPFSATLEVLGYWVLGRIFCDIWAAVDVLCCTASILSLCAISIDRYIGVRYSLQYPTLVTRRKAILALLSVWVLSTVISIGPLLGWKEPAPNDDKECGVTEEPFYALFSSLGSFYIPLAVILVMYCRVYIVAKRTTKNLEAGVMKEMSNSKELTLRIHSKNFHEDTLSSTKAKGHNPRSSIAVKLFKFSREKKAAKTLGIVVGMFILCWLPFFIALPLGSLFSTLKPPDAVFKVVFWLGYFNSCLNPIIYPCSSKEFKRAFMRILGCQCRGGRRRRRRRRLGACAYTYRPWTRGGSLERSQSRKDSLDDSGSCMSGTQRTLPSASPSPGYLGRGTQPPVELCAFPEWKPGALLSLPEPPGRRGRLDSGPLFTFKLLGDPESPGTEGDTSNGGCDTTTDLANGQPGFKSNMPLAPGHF

[3] = molecular target: Mitogen-activated protein kinase 14 (Homo sapiens, UniProt Q16539); design: species or system Escherichia coli;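 note: inhibition of p38alpha enzyme activity in a biochemical kinase assay, with myelin basic protein serving as substrate; in other assays of this panel Not Active means under 50% inhibition at 10 µM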
Mitogen-activated protein kinase 14, sequence (Q16539 whole entry): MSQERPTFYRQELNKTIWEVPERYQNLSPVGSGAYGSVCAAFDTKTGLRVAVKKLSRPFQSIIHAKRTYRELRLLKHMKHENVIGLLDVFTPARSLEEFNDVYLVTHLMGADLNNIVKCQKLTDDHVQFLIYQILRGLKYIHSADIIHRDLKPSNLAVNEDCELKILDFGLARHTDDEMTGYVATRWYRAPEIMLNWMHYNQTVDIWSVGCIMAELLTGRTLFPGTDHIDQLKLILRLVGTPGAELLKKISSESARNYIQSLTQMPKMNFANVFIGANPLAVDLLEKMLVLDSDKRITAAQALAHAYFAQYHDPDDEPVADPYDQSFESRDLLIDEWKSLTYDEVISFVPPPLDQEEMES

[4] = molecular target: T2, Alpha-1D adrenergic receptor (Homo sapiens, UniProt P25100); type: cell membranes, HEK293, Membrane; note: in other assays of this panel Not Active means under 50% inhibition at 10 µM
T2 sequence (P25100 whole entry): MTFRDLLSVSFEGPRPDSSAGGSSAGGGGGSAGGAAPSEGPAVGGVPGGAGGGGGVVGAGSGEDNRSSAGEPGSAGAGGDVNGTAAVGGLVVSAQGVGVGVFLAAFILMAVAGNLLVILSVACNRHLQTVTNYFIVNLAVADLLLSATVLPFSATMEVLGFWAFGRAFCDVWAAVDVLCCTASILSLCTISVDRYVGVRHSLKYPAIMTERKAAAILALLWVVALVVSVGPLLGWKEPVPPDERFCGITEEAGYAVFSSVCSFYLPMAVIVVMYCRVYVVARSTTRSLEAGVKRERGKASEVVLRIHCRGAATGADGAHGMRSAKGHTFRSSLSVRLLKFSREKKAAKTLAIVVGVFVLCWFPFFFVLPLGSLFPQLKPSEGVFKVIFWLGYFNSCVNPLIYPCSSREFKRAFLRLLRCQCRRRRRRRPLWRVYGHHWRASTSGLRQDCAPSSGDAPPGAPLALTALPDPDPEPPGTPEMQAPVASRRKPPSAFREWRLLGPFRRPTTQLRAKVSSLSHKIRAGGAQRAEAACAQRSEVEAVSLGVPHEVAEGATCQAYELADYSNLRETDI

[5] = DRUGMATRIX: beta-Lactamase enzyme inhibition (substrate: Nitrocefin); design: species or system Bacillus cereus; settings: Not Active = under 50% inhibition at 10 µM
[6] = molecular target: Vasopressin V1a receptor (Homo sapiens, UniProt P37288); type: cell membranes, Membrane; settings: hek293; note: in other assays of this panel Not Active means under 50% inhibition at 10 µM
Vasopressin V1a receptor, sequence (P37288 whole entry): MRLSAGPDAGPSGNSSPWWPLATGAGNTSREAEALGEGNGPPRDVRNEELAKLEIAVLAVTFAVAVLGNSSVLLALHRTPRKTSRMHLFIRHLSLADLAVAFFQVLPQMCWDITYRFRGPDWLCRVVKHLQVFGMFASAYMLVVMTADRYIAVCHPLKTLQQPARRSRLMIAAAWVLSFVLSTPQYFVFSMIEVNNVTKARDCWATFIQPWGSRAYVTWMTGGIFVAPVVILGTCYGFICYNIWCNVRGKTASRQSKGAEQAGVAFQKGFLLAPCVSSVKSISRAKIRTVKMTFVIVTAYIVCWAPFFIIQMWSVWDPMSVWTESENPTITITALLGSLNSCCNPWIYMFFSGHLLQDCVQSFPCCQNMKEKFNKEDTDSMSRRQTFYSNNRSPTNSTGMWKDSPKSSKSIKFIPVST

[7] = DRUGMATRIX: ATPase, Na+/K+ enzyme inhibition (substrate: ATP); type: tissue-based, Sus scrofa, Heart; settings: Not Active = under 50% inhibition at 10 µM

Compound	IC50 [1]	Ki [1]	IC50 [2]	IC50 ([3]; read-out: IC50) [nM]	IC50 ([4]; hek293)	IC50 [5]	Ki [5]	IC50 [6]	IC50 [7]	Ki [7]	Ki [2]	IC50 [3]	Ki [3]	Ki ([4]; hek293)	Ki [6]	IC50 ([2]; read-out: IC50) [nM]	Ki ([2]; read-out: Ki) [nM]	IC50 ([4]; read-out: IC50) [nM]	Ki ([4]; read-out: Ki) [nM]
ClC1=C(Cl)[C@]2(Cl)[C@@H]3[C@@H]4C[C@@H]([C@H]5O[C@@H]45)[C@@H]3[C@@]1(Cl)C2(Cl)Cl [DIELDRIN]	Not Active	Not Active	Not Active	43200	Not Active	Not Active	Not Active	Not Active	Not Active	Not Active									
CARBOXYMETHYLCELLULOSE	Not Active	Not Active	Not Active		Not Active	Not Active	Not Active	Not Active	Not Active	Not Active	Not Active	Not Active	Not Active	Not Active	Not Active				
CC(CN1c2ccccc2Sc2ccccc21)N(C)C (stereo not given) [PROMETHAZINE]	Not Active	Not Active				Not Active	Not Active	Not Active	Not Active	Not Active		Not Active				39	21	183	90
NCC(CC(=O)O)c1ccc(Cl)cc1 (stereo not given) [BACLOFEN]	Not Active	Not Active	Not Active		Not Active	Not Active	Not Active	Not Active	Not Active	Not Active		Not Active							
CN(CCOc1ccc(C[C@H](Nc2ccccc2C(=O)c2ccccc2)C(=O)O)cc1)c1ccccn1	Not Active	Not Active	Not Active		Not Active	Not Active	Not Active	Not Active	Not Active	Not Active		Not Active							
COPPER(II) OXIDE	Not Active	Not Active	Not Active		Not Active	Not Active	Not Active	Not Active	Not Active	Not Active	Not Active	Not Active	Not Active	Not Active	Not Active				
Cl.NC[C@H]1CC[C@H](C(=O)Oc2ccc(CCC(=O)O)cc2)CC1 [CETRAXATE HYDROCHLORIDE]	Not Active	Not Active	Not Active		Not Active	Not Active	Not Active	Not Active	Not Active	Not Active		Not Active							
C[C@H](C(=O)O)c1ccc2oc(-c3ccc(F)cc3)nc2c1 [FLUNOXAPROFEN]	Not Active	Not Active	Not Active		Not Active	Not Active	Not Active	Not Active	Not Active	Not Active		Not Active							
CCN1CCN(c2cc3c(cc2F)c(=O)c(C(=O)O)cn3C2CC2)CC1 [ENROFLOXACIN]	Not Active	Not Active	Not Active		Not Active	Not Active	Not Active	Not Active	Not Active	Not Active		Not Active							
C[C@]12CC[C@@H](O)C[C@@H]1CC[C@@H]1[C@@H]2CC[C@]2(C)C(=O)CC[C@@H]12 [ANDROSTERONE]	Not Active	Not Active	Not Active		Not Active	Not Active	Not Active	Not Active	Not Active	Not Active		Not Active							
O=C(NCCN1CCOCC1)c1ccc(Cl)cc1 [MOCLOBEMIDE]	Not Active	Not Active	Not Active		Not Active	Not Active	Not Active	Not Active	Not Active	Not Active		Not Active							
NC(=O)CN1CCCC1=O	Not Active	Not Active	Not Active		Not Active	Not Active	Not Active	Not Active	Not Active	Not Active		Not Active							
Oc1ccccc1 [PHENOL]	Not Active	Not Active	Not Active		Not Active	Not Active	Not Active	Not Active	Not Active	Not Active		Not Active							
CCO [ALCOHOL]	Not Active	Not Active	Not Active		Not Active	Not Active	Not Active	Not Active	Not Active	Not Active		Not Active							
COc1ccc(Cl)cc1C(=O)NCCc1ccc(S(=O)(=O)NC(=O)NC2CCCCC2)cc1 [GLYBURIDE]	Not Active	Not Active	Not Active		Not Active	Not Active	Not Active	Not Active	Not Active	Not Active		Not Active							
OC[C@H]1O[C@@H]2O[C@H]3[C@H](O)[C@@H](O)[C@@H](O[C@H]4[C@H](O)[C@@H](O)[C@@H](O[C@H]5[C@H](O)[C@@H](O)[C@@H](O[C@H]6[C@H](O)[C@@H](O)[C@@H](O[C@H]7[C@H](O)[C@@H](O)[C@@H](O[C@H]8[C@H](O)[C@@H](O)[C@@H](O[C@H]1[C@H](O)[C@H]2O)O[C@@H]8CO)O[C@@H]7CO)O[C@@H]6CO)O[C@@H]5CO)O[C@@H]4CO)O[C@@H]3CO [BETADEX]	Not Active	Not Active	Not Active		Not Active	Not Active	Not Active	Not Active	Not Active	Not Active		Not Active							
NC(N)=Nc1nc(CSCCC(N)=NS(N)(=O)=O)cs1 [FAMOTIDINE]	Not Active	Not Active	Not Active		Not Active	Not Active	Not Active	Not Active	Not Active	Not Active		Not Active							
COc1cc(NC(C)CCCN)c2ncccc2c1 (stereo not given) [PRIMAQUINE]	Not Active	Not Active	Not Active		Not Active	Not Active	Not Active	Not Active	Not Active	Not Active		Not Active							
Cc1c(N)nc([C@H](CC(N)=O)NC[C@H](N)C(N)=O)nc1C(=O)N[C@H](C(=O)N[C@H](C)[C@@H](O)[C@H](C)C(=O)N[C@H](C(=O)NCCc1nc(-c2nc(C(=O)NCCC[S+](C)C)cs2)cs1)[C@@H](C)O)[C@@H](O[C@@H]1O[C@@H](CO)[C@@H](O)[C@H](O)[C@@H]1O[C@H]1O[C@H](CO)[C@@H](O)[C@H](OC(N)=O)[C@@H]1O)c1c[nH]cn1.[Br-] [BLEOMYCIN A2]	Not Active	Not Active	Not Active		Not Active	Not Active	Not Active	Not Active	Not Active	Not Active		Not Active							
O=C(O)CNCP(=O)(O)O [GLYPHOSATE]	Not Active	Not Active	Not Active		Not Active	Not Active	Not Active	Not Active	Not Active	Not Active		Not Active							
c1ccc2c(c1)Nc1ccccc1S2 [PHENOTHIAZINE]	Not Active	Not Active	Not Active		Not Active	Not Active	Not Active	Not Active	Not Active	Not Active		Not Active							
